Molecular target: human VR1 (Homo sapiens, UniProt Q8NER1)
Assay: Human VR1 antagonist assay (Ca2+ imaging)
Assay type: cell-based
Conditions: Ca2+ imaging in human VR1 expressing cells; agonist stimulation (capsaicin 300 nM or acid pH 5.8) not given
Description: VR1 antagonistic activity can be determined by the Ca^2+ imaging assay using human VR1 highly expressing cells. The cells that highly express human VR1 receptors are obtainable from several different conventional methods. The one standard method is cloning from human Dorsal Root Ganglion (DRG) or kidney according to the methods such as described in the journal article; Nature, 389, pp816-824, 1997. Alternatively VR1 receptors highly expressing human keratinocytes are also known and published in the journal article (Biochemical and Biophysical Research Communications, 291, pp124-129, 2002). […] Furthermore, the method to up regulate human VR1 gene, which is usually a silent gene or don't produce detectable level of VR1 receptors, is also available to obtain propriety cells. Such genetic modification method was described in detail; Nat. Biotechnol., 19, pp440-445, 2001.
The cells that express human VR1 receptors were maintained in culture flask at 37° C. in an environment containing 5% CO2 until use in the assay. The intracellular Ca^2+ imaging assay to determine VR1 antagonistic activities were done by following procedures.
The culture medium was removed from the flask and fura-2/AM fluorescent calcium indicator was added to the flask at a concentration of 5 μM in the medium. The flask was placed in CO2 incubator and incubated for 1 hour. Then the cells expressing the human VR1 receptors were detached from the flask follow by washing with phosphate buffer saline, PBS(−) and re-suspended in assay buffer. The 80 μl of aliquot of cell suspension (3.75×10^5 cells/ml) was added to the assay plate and the cells were spun down by centrifuge (950 rpm, 20° C., 3 minutes).
The capsaicin-induced changes in the intracellular calcium concentration were monitored using FDSS 6000 (Hamamatsu Photonics, Japan), a fluorometric imaging system. The cell suspension in Krebs-Ringer HEPES (KRH) buffer (115 mM NaCl, 5.4 mM KCl, 1 mM MgSO4, 1.8 mM CaCl2, 11 mM D-Glucose, 25 mM HEPES, 0.96 mM Na2HPO4, pH 7.3) were pre-incubated with varying concentrations of the test compounds or KRH buffer (buffer control) for 15 minutes at room temperature under the dark condition. Then capsaicin solution, which gives 300 nM in assay mixture, was automatically added to the assay plate by the FDSS 6000.
The Acid-induced changes in the intracellular calcium concentration were monitored using FDSS 6000 (Hamamatsu Photonics, Japan), a fluorometric imaging system. The cell suspension in resting buffer (HBSS supplemented with 10 mM HEPES, pH 7.4) were pre-incubated with varying concentrations of the test compounds or resting buffer (buffer control) for 15 minutes at room temperature under the dark condition. The cells were automatically added the stimulating solution (HBSS supplemented with MES, final assay buffer pH5.8) by the FDSS 6000.
The monitoring of the changes in the fluorescence signals (λex=340 nm/380 nm, λem=510-520 nm) was initiated at 1 minute prior to the addition of capsaicin solution or acidic buffer and continued for 5 minute.
The compounds of the examples were tested in the Human VR1 antagonist assay described above.

human VR1, sequence (Q8NER1 whole entry): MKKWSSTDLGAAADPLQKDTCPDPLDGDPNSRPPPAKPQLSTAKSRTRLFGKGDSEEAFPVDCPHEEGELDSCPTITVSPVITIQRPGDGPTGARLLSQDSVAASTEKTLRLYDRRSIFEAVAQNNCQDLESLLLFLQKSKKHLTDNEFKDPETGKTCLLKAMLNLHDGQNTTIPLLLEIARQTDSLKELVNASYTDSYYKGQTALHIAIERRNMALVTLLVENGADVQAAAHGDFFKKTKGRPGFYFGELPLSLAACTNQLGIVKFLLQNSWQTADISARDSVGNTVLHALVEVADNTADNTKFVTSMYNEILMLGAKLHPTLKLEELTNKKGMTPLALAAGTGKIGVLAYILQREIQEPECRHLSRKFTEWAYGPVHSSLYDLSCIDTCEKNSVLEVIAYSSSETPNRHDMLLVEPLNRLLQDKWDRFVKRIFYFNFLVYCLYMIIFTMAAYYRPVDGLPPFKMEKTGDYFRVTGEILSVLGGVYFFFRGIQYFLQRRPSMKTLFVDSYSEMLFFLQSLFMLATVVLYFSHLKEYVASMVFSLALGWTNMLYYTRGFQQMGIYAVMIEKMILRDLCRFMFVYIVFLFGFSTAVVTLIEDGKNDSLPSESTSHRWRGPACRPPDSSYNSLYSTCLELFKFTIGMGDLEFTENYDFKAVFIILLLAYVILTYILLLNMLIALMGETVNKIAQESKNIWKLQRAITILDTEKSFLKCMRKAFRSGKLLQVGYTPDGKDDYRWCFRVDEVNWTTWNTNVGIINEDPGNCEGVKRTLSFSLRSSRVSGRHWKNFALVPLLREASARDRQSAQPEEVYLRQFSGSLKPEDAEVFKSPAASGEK

Row | SMILES | IC50 [nM]
1 | C[C@@H](NC(=O)COc1cc(F)c(C(C)(C)C)c(F)c1)c1ccc2nn[nH]c2c1 [Example 14, N-[(1R)-1-(1H-1,2,3-Benzotriazol-6-yl)ethyl]-2-(4-tert-butyl-3,5-difluorophenoxy)acetamide] | 31
2 | CC(C)(C)c1ccc(OCC(=O)NCc2ccc3[nH]c(=O)[nH]c3c2)cc1F [Example 2, 2-(4-tert-butyl-3-fluorophenoxy)-N-[(2-oxo-2,3-dihydro-1H-benzimidazol-5-yl)methyl]acetamide] | 111
3 | Cn1c(=O)[nH]c2cc(CNC(=O)COc3ccc(C(C)(C)C)c(Cl)c3)ccc21 [Example 7, 2-(4-tert-butyl-3-chlorophenoxy)-N-[(1-methyl-2-oxo-2,3-dihydro-1H-benzimidazol-5-yl)methyl]acetamide] | 175
4 | CC(C)(C)c1ccc(OCC(=O)NCc2ccc3[nH]cnc3c2)cc1 [Example 11, 2-(4-tert-butylphenoxy)-N-(1H-benzindazol-5-ylmethyl)acetamide] | 837
5 | CC(C)(C)c1ccc(OCC(=O)NCc2ccc3[nH]c(=O)oc3c2)cc1Cl [Example 10, 2-(3-chloro-4-tert-butylphenoxy)-N-[(2-oxo-2,3-dihydro-1,3-benzoxazol-6-yl)methyl]acetamide] | 413
6 | Cn1c(=O)[nH]c2ccc(CNC(=O)COc3ccc(C(C)(C)C)c(Cl)c3)cc21 [Example 8, 2-(3-chloro-4-tert-butylphenoxy)-N-[(3-methyl-2-oxo-2,3-dihydro-1H-benzimidazol-5-yl)methyl]acetamide] | 481
7 | Cn1c(=O)[nH]c2cc(CNC(=O)COc3ccc(C(C)(C)C)cc3)ccc21 [Example 5, 2-(4-tert-butylphenoxy)-N-[(1-methyl-2-oxo-2,3-dihydro-1H-benzimidazol-5-yl)methyl]acetamide] | 462
8 | CC(NC(=O)COc1cc(F)c(C(C)(C)C)c(F)c1)c1ccc2ncsc2c1 (stereo not drawn) [Example 15, N-[1-(1,3-benzothiazol-6-yl)ethyl]-2-(4-tert-butyl-3,5-difluorophenoxy)acetamide] | 71
9 | CC(C)(C)c1ccc(OCC(=O)NCc2ccc3[nH]c(=O)[nH]c3c2)cc1Cl [Example 4, 2-(4-tert-Butyl-3-chlorophenoxy)-N-[(2-oxo-2,3-dihydro-1H-benzimidazol-5-yl)methyl]acetamide] | 86
10 | CC(C)(C)c1c(F)cc(OCC(=O)NCc2ccc3[nH]c(=O)[nH]c3c2)cc1F [Example 3, 2-(4-tert-butyl-3,5-difluorophenoxy)-N-[(2-oxo-2,3-dihydro-1H-benzimidazol-5-yl)methyl]acetamide] | 97
11 | CC(C)(C)c1ccc(OCC(=O)NCc2ccc3[nH]c(=O)[nH]c3c2)cc1 [Example 1, 2-(4-tert-Butylphenoxy)-N-[(2-oxo-2,3-dihydro-1H-benzimidazol-5-yl)methyl]acetamide] | 421
12 | Oc1cc2c(cc1O)CN(C(=S)NCCc1ccc(Cl)cc1)CCC2 [Capsazepine, reference compound] | 250 to 350
13 | CC(C)(C)c1ccc(OCC(=O)NCc2ccc3c(c2)CC(=O)N3)cc1Cl [Example 9, 2-(3-chloro-4-tert-butylphenoxy)-N-[(2-oxo-2,3-dihydro-1H-indol-5-yl)methyl]acetamide] | 478
14 | CC(NC(=O)COc1cc(F)c(C(C)(C)C)c(F)c1)c1ccc2[nH]c(=O)[nH]c2c1 (stereo not drawn) [Example 13, 2-(4-tert-Butyl-3,5-difluorophenoxy)-N-[1-(2-oxo-2,3-dihydro-1H-benzimidazol-5-yl)ethyl]acetamide] | 50
15 | CC(C)(C)c1ccc(OCC(=O)NCc2ccc3[nH]cnc3c2)cc1 [Example 12, N-(1H-benzimidazol-5-ylmethyl)-2-(4-tert-butylphenoxy)acetamide] | 286

Reference: patent US7514457B2, “Substituted aryloxymethyl bicyclicmethyl acetamide compounds” (Pfizer Inc., priority 2005, dated 2009)
